We go through nine molecules from patent publication US20020192736A1, “Assay of peroxidase activity” (Pierce Chemical Company, priority 2001, published 2002).

The target in assay [1] is T1, B-HRP (Armoracia rusticana, UniProt P00433).
T1 sequence (P00433 31-338): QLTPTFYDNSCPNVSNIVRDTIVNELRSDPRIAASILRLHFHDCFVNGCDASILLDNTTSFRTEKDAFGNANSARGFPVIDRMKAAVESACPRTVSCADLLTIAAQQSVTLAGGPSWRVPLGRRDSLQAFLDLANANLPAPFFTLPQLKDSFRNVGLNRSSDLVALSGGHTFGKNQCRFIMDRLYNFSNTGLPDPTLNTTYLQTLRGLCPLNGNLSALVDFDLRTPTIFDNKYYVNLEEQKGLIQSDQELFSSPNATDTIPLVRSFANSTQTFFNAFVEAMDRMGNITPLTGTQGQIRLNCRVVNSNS
The experiment in a line: Dot blot assay with B-HRP, film densitometry. The following applies: for Net Relative Intensity at 0.98 pg B-HRP / Net Relative Intensity at 3.9 pg B-HRP / Net Relative Intensity at 62.5 pg B-HRP / Net Relative Intensity at 250 pg B-HRP: […] Azine Enhancer, 5 mM Sodium Luminol.

For assay [2], the target named is horseradish peroxidase labeled streptavidin (SA-HRP) (Armoracia rusticana, UniProt P00433). Put plainly: Dot blot assay on nitrocellulose membrane, film densitometry (relative intensity). Format: biochemical.
The subject of assay [3] is oxidized peroxidase. Put plainly: Poisoning of the chemiluminescent system. Format: biochemical. The settings on record: azine with hydrogen atom bonded to the ring nitrogen. The procedure:
The contaminant has been identified as a reducing azine species wherein the azine is capable of donating an electron or otherwise reacting with oxidized peroxidase (or peroxidase equivalent). […] This characterization has been made both by theoretic analysis, chemical analysis to determine the presence of the 10=H species, and by reconstruction experiments wherein the “poisoning azine” was added to highly purified azine compositions in order to quantitate the poisoning effects, and to establish the preferred purity of the azine enhancers. […] Concentrations or absolute amounts of a target analyte, which are one-tenth the minimum detectable by other systems can be detected in preferred systems of the invention. […]
This species is a non-enhancing oxidized species of […]. […] If a thiazine with a hydrogen in the 10-yl position is proven to be a non-poisoning species (by its inability to readily react with oxidized peroxidase at room temperature), its presence in or absence from the solution is inconsequential. […] By describing these compounds as inert or not readily reactive with oxidized peroxidase, the basis for the consideration of these terms is visible effects upon luminescence in a peroxidase system. […]

[4] abbreviates: 50 μM Azine Enhancer, 1 mM Sodium Luminol.
Where [5] appears, read: […] Azine Enhancer, 5 mM Sodium Luminol.
Setting [6] is: 20 pg SA-HRP, enhancer concentrations as in row ([…] 1c; 52 μM 1c; 52 μM 1b; 13.5 μM 3).
The mark [7] stands for this setting: 30 minute reexposure, working solutions: […] 1c, 52 μM 1c, 52 μM 1b, 13.5 μM 3, 52 μM 1b + 13.5 μM 3.

“And” between values parts separate entries of the source, which are not always exact repeats. Equal entries are not always repeated. Where two headings read alike, the source gives them in different places.

Sequence of horseradish peroxidase labeled streptavidin (SA-HRP) (P22629 25-183 partner, one chain of several): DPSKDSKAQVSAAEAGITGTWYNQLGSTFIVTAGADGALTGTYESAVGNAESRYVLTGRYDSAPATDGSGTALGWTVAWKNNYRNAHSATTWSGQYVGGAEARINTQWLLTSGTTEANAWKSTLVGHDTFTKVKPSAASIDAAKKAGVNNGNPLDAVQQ

In the case of `c1ccc2c(c1)Nc1ccccc1S2` [Azine Poison 1a, phenothiazine], in assay [1], the “Background RI at 0 pg of B-HRP” value was 7.74 and 6.15 and 6.01 and 7.24; the “Relative Intensity at 250 pg of B-HRP” value was 180.38 and 209.39 and 165.28.

Regarding “2-chloro-10 (3 trimethyl amino propyl)-phenothiazonan bromide [Azine Enhancer 1d]”, in assay [1], the “Net Relative Intensity at 0.98 pg B-HRP” value stood at 0, the “Net Relative Intensity at 3.9 pg B-HRP” value is given as 0, the “Net Relative Intensity at 62.5 pg B-HRP” value was 1.70 and the “Net Relative Intensity at 250 pg B-HRP” value is recorded as 15.63. In assay [2], the “Net Relative Intensity at 1000 pg SA-HRP” value is 1,106,656 and 1,538,600.

Consider `CN1c2ccccc2Sc2ccccc21` [Azine Enhancer 1b, N-Methylphenothiazine], for which, in assay [2], the “Net Relative Intensity at 10 pg SA-HRP” value came out at 0, the “Net Relative Intensity at 100 pg SA-HRP” value stood at 0, the “Relative Intensity 2 pg SA-HRP” value stood at 0 and the “Relative Intensity 5 pg SA-HRP” value is given as 0. Besides, in assay [2], the “Relative Intensity 20 pg SA-HRP” value was 573,864, the “Relative Intensity 1 minute” value is listed as 457,800, the “Relative Intensity 5 minutes” value is 628,408 and the “Relative Intensity 30 minutes” value is listed as 573,864. Besides, in assay [2], the “Relative Intensity 1 hours” value is listed as 502,376 and the “Relative Intensity 24 hours” value worked out at 0.

For `O=S(=O)([O-])CCCCN1c2ccccc2Sc2ccc(Cl)cc21.[Na+]` [Azine Enhancer 1h], in assay [1], the “Net Relative Intensity at 0.98 pg B-HRP” value is listed as 0.20, the “Net Relative Intensity at 3.9 pg B-HRP” value stood at 0.55, the “Net Relative Intensity at 62.5 pg B-HRP” value came out at 44.09 and the “Net Relative Intensity at 250 pg B-HRP” value is 75.58.

Consider `O=S(=O)([O-])CCCCN1c2ccccc2Sc2ccccc21.[Na+]` [Azine Enhancer 1f], for which, in assay [1], the “Net Relative Intensity at 0.98 pg B-HRP” value was 12.05, the “Net Relative Intensity at 3.9 pg B-HRP” value was determined as 28.77, the “Net Relative Intensity at 62.5 pg B-HRP” value is 91.44 and the “Net Relative Intensity at 250 pg B-HRP” value was 151.53.

As for `O=C(O)CCCN1c2ccccc2Sc2ccccc21` [Azine Enhancer 1e], in assay [2] (setting [4]), the “Net Relative Intensity at 10 pg SA-HRP” value is reported as 1,416,056, the “Net Relative Intensity at 100 pg SA-HRP” value was 4,351,240 and the “Net Relative Intensity at 1000 pg SA-HRP” value was 9,599,880. In assay [2] (setting [5]), the “Net Relative Intensity at 10 pg SA-HRP” value is reported as 432,352, the “Net Relative Intensity at 100 pg SA-HRP” value is 3,021,440 and the “Net Relative Intensity at 1000 pg SA-HRP” value was 8,706,320.

As to `CC(CN1c2ccccc2Sc2ccccc21)C[N+](C)(C)C.[Cl-]` (stereo not drawn) [Azine Enhancer 1g], in assay [1], the “Net Relative Intensity at 0.98 pg B-HRP” value is reported as 0, the “Net Relative Intensity at 3.9 pg B-HRP” value is listed as 0, the “Net Relative Intensity at 62.5 pg B-HRP” value stood at 2.16 and the “Net Relative Intensity at 250 pg B-HRP” value came out at 17.92.

`[O-][O+]1c2ccccc2Nc2ccccc21` [phenoxazine-5-oxide]: in assay [3], the “poisoning of the chemiluminescent system” value is “does not poison the system”.

In the case of `O=C1C=CC(=Nc2ccc(O)cc2)C=C1` [Phenolic Enhancer 3, Phenolindophenol/indophenol], in assay [2] (setting [6]), the “Relative Intensity 1 minute” value is 747,888, the “Relative Intensity 5 minutes” value was 707,432, the “Relative Intensity 30 minutes” value is 598,082 and the “Relative Intensity 1 hours” value is given as 492,016. In addition, in assay [2] (setting [6]), the “Relative Intensity 2 hours” value was 274,888 and the “Relative Intensity 24 hours” value came to 0. In addition, in assay [2] (setting [7]), the “Relative Intensity 2 pg SA-HRP” value turned out to be 0, the “Relative Intensity 5 pg SA-HRP” value is 106,776 and the “Relative Intensity 20 pg SA-HRP” value is on record as 598,072.
